Assay results as given in article PMC7822030, “Hybrid Inhibitors of DNA Gyrase A and B: Design, Synthesis and Evaluation” (Pharmaceutics, 2020).
Like-named read-outs stand apart in the source and are kept apart here.

What was measured:
[1] = target: T1, E. coli topoisomerase IV (Escherichia coli, UniProt P0AFI2+P20083); test: E. coli topoisomerase IV relaxation assay; type: biochemical
T1 construct: purchased Inspiralis, Norwich, UK
Protocol: (§1) The assay for determination of the IC50 values was performed according to previously reported procedures.
(§2) Briefly, inhibitory activities were determined using supercoiling (for DNA gyrase) and relaxation (for topoisomerase IV) assay kits (Inspiralis, Norwich, UK) on streptavidin-coated 96-well microtiter plates from Thermo Scientific Pierce (Thermo Fisher Scientific, Waltham, MA, USA). First, the plates were rehydrated with Wash Buffer and the biotinylated oligonucleotide TFO1 was then immobilized. After washing off the unbound oligonucleotide with Wash Buffer, the enzyme assay was performed. Into each well was added 24 µL of mixture containing 6 µL of Assay Buffer (containing ATP), 0.75 µL of relaxed (for E. coli DNA gyrase supercoiling assay) or supercoiled (for E. coli topoisomerase IV relaxation assay) pNO1 plasmid and 17.25 µL of water. Additionally, 3 µL of a solution of the inhibitor in 10% DMSO containing 0.008% Tween 20 and 3 µL of enzyme (1.5 U) in Dilution Buffer were also added to the wells. […] The TF buffer was added to terminate the enzymatic reaction and after additional incubation for 30 min at room temperature, which allowed for triplex formation (biotin–oligonucleotide–plasmid), the unbound plasmid was washed off using TF buffer. Promega Diamond dye in T10 buffer was then added. […] Here, the compounds were diluted using 2-fold serial dilution steps of the given compound. GraphPad Prism 6.0 software was used to calculate the IC50 values, which were determined in at least two independent measurements, and their means are given as the final result. […] Dose-response curves can be found in Supplementary Materials.

[2] = test system: E. cloacae spp. cloacae ATCC 13047; test: MIC broth microdilution, E. cloacae; type: cell-based, Enterobacter cloacae; details: Enterobacter cloacae, ATCC13047, read-out: MIC E. cloacae spp. cloacae ATCC #
[3] = test system: E. coli BW25113 ΔmrcB; type: cell-based, Escherichia coli
Source text: (§3) E. coli MG1655 originated from the laboratory collection of Dr. Csaba Pál. […] E. coli K-12 BW25113 single-gene knockout mutant lines ΔdapF, ΔmrcB, ΔsurA, ΔacrB and ΔtolC originated form the Keio collection copy owned by the laboratory of Dr. Csaba Pál.
(§4) Cation-adjusted Mueller Hinton II broth (MHBII) was used for growth of the bacteria under standard laboratory conditions, for antimicrobial susceptibility tests, and for selection of resistant variants. To prepare the MHBII broth, 22 g MHBII powder (containing 3 g beef extract, 17.5 g acid hydrolysate of casein, 1.5 g starch; Becton, Dickinson and Co., Franklin Lakes, NJ, USA) was dissolved in 1 L water. MHBII agar was prepared by addition of 14 g agar (Bacto; Molar Chemicals, Halásztelek, Hungary) to 1 L broth.
(§5) Minimum inhibitory concentrations (MICs) were determined using a standard serial broth microdilution technique, according to the Clinical and Laboratory Standards Institute guidelines. […] For Enterococcus sp., the cells were plated in BHI agar plates, and BHI broth was used to determine the MICs. […] Following the dilutions, each well was seeded with 5 × 10^4 bacterial cells. Each measurement was performed in three parallel replicates, and to avoid possible edge effects in the microwell plates, the outside rows (A, H) were filled with sterile medium. Following the inoculations, the plates were covered with the lids and wrapped in polyethylene plastic bags, to minimize evaporation but to allow O2 transfer. […] After incubation, the OD600 of each well was measured using a microplate reader (Synergy 2; Biotek, Winooski, VT, USA).

[4] = test system: E. coli BW25113 ΔtolC; type: cell-based, Escherichia coli
Source text: as §3, §4, §5

[5] = test system: E. coli BW25113 ΔsurA; type: cell-based, Escherichia coli
Source text: as §3, §4, §5

[6] = test system: E. coli BW25113 ΔacrB; type: cell-based, Escherichia coli
Source text: as §3, §4, §5

[7] = test system: E. coli BW25113 ΔdapF; type: cell-based, Escherichia coli
Source text: as §3, §4, §5

[8] = test system: K. pneumoniae ATCC 10031; test: MIC broth microdilution, K. pneumoniae; type: cell-based; details: Klebsiella pneumoniae, ATCC10031, read-out: MIC K. pneumoniae ATCC #
Source text: as §3, §4, §5

[9] = test system: P. aeruginosa ATCC 27863; test: MIC broth microdilution, P. aeruginosa; type: cell-based; details: Pseudomonas aeruginosa
Source text: as §3, §4, §5

[10] = target: T2, E. coli DNA gyrase (Escherichia coli, UniProt P0AES4+P0AES6); test: E. coli DNA gyrase supercoiling assay; type: biochemical
T2 construct: purchased Inspiralis, Norwich, UK
Protocol: as §1, §2

[11] = test system: E. coli ATCC 25922; test: MIC broth microdilution, E. coli ATCC 25922; type: cell-based; details: Escherichia coli, ATCC25922, read-out: MIC E. coli ATCC #
Source text: as §3, §4, §5

[12] = test system: E. coli BW25113 WT; test: MIC, E. coli BW25113 wild-type; type: cell-based; details: Escherichia coli, BW25113, read-out: Minimum Inhibitory Concentration E. coli BW# WT
Source text: as §3, §4, §5

[13] = test system: A. baumannii ATCC 17978; test: MIC broth microdilution, A. baumannii; type: cell-based; details: Acinetobacter baumannii, ATCC17978, read-out: MIC A. baumannii ATCC #
Source text: as §3, §4, §5

[14] = test system: E. coli MG1655 GyrA S83L, D87N ParC S80I, E84G; test: microbe, parasite or virus in culture; type: cell-based, Escherichia coli
Source text: as §3, §4, §5
(§6) These mutated amino acids are the most common sites for target-based resistance in E. coli.

[15] = test system: E. coli MG1655 GyrB R136C; test: microbe, parasite or virus in culture; type: cell-based, Escherichia coli
Source text: as §3, §4, §5, §6

[16] = test system: E. coli MG1655 WT; test: MIC, E. coli MG1655 wild-type with PAβN; type: cell-based, Escherichia coli
Source text: as §3, §4
as §5, with “USA). […]” for “USA).”

[17] = molar conversion in parentheses
[18] = in the presence of 50 µg/mL PAβN

Cc1[nH]c(C(=O)Nc2nc3ccc(C(=O)N4CCN(c5cc6c(cc5F)c(=O)c(C(=O)O)cn6C5CC5)CC4)cc3s2)c(Cl)c1Cl [Compound 3a, 1-Cyclopropyl-7-(4-(2-(3,4-dichloro-5-methyl-1H-pyrrole-2-carboxamido)benzo[d]thiazole-6-carbonyl)piperazin-1-yl)-6-fluoro-4-oxo-1,4-dihydroquinoline-3-carboxylic acid]
IC50 [1]: 1 ± 0.15 µM
Inhibition of topoisomerase IV (in words) ([1]; relaxation assay): low micromolar
melting point: > 300 °C
MIC ([2]; broth microdilution, 18 h): 4 mg/L
MIC [2, 17]: 5.85 µM
Minimum Inhibitory Concentration E. coli BW25113 ΔmrcB ([3]; impaired cell-wall mutant): 4 µg/mL
Minimum Inhibitory Concentration E. coli BW25113 ΔmrcB [3, 17]: (5.85 µM)
Minimum Inhibitory Concentration E. coli BW25113 ΔtolC ([4]; efflux pump mutant): 1 µg/mL
MIC change, ΔtolC mutant versus wild-type E. coli BW25113 ([4]; improvement of MIC in impaired efflux pump mutant): 4 fold
Minimum Inhibitory Concentration E. coli BW25113 ΔtolC [4, 17]: (1.46 µM)
Minimum Inhibitory Concentration E. coli BW25113 ΔsurA ([5]; impaired cell-wall mutant): 4 µg/mL
Minimum Inhibitory Concentration E. coli BW25113 ΔsurA [5, 17]: (5.85 µM)
Minimum Inhibitory Concentration E. coli BW25113 ΔacrB ([6]; efflux pump mutant): 4 µg/mL
Minimum Inhibitory Concentration E. coli BW25113 ΔacrB [6, 17]: (5.85 µM)
Minimum Inhibitory Concentration E. coli BW25113 ΔdapF ([7]; impaired cell-wall mutant): 4 µg/mL
Minimum Inhibitory Concentration E. coli BW25113 ΔdapF [7, 17]: (5.85 µM)
MIC ([8]; broth microdilution, 18 h): 0.5 mg/L
MIC [8, 17]: 0.73 µM
MIC ([9]; ATCC27863, 18 h, read-out: MIC P. aeruginosa ATCC #): 64 mg/L
MIC ([9]; ATCC27863, read-out: MIC P. aeruginosa ATCC #, molar conversion in parentheses, read-out: MIC P. aeruginosa ATCC 27863): 93.6 µM
IC50 [10]: 0.45 ± 0.18 µM
MIC ([11]; broth microdilution, 18 h): 2 mg/L
MIC [11, 17]: 2.93 µM
MIC [12, 17]: 5.85 µM
MIC ([12]; wild-type): 4 mg/L
MIC ([13]; broth microdilution, 18 h): 16 mg/L
MIC [13, 17]: 23.4 µM
MIC ([14]; Escherichia coli, MG1655, read-out: Minimum Inhibitory Concentration E. coli MG# GyrA S83L, D87N ParC S80I, E84G): 23.4 µM
Minimum Inhibitory Concentration E. coli MG1655 GyrA S83L, D87N ParC S80I, E84G [14, 18]: 16 µg/mL
MIC ([15]; Escherichia coli, MG1655, read-out: Minimum Inhibitory Concentration E. coli MG# GyrB R#C): 0.73 µM
Minimum Inhibitory Concentration E. coli MG1655 GyrB R136C [15, 18]: 0.5 µg/mL
MIC ([16]; Escherichia coli, MG1655, read-out: Minimum Inhibitory Concentration E. coli MG# WT, 50 µg/mL PAβN, molar conversion in parentheses): 0.73 µM
Minimum Inhibitory Concentration E. coli MG1655 WT [16, 18]: 0.5 µg/mL
